Source: patent US20070026090A1, “Treatment and prevention of inflammatory disease and mitochondrial dysfunction with high dose selenium” (priority 2003, published 2007)

Legend:
[1] = tested on: glutathione peroxidase (GPx); experiment: GPx activity in macrophage cell extract; assay type: cell-based, murine; conditions: 24 h; range 0.5-30 μM (FIG. 8B)
Protocol: (§1) Cell culture: Murine J774.2 macrophages (kindly provided by Prof. Dov Zipori from the Weizmann Institute of Science) were grown in RPMI medium supplemented with 10% (w/v) fetal calf serum, penicillin (100 U/ml), streptomycin (100 μg/ml) and 1× glutamine at 37° C. in a humidified atmosphere consisting of 95% air and 5% CO2. Experiments were performed on cells at 60% confluence.
GPx activity: GPx activity was determined by following the rate of NADPH oxidation at 340 nm in the presence of the substrates: 3 mM glutathione (GSH), 1.2 U glutathione reductase (GR) and 1.5% H2O2, using a microfluorometer plate reader (GENios, Tecan, Austria). The reaction contained 500 μl Tris reaction buffer (100 mM Tris Hcl, 300 mM Kcl, 5 mM EDTA, 1 mM NaN3, pH 7.0), substrates and 100 μl cell extract. Macrophages were treated with selenium for 24 h. Wells were washed twice with PBS, cells permeabilized, and scraped using 200 μl 0.2% Triton X-100. The reaction was recorded every minute for 25 minutes. Slopes were calculated and the results were adjusted according to the protein amount calculated with the Bradford reagent.

J774.2 macrophages [2] = experiment: Type of cell death (annexin V-FITC / PI); assay type: cell-based, murine; conditions: 10 μM, 24 hours; annexin V-FITC and PI
Protocol: Experiments were performed on cells at 60% confluence.
Determination of type of cell death: Type of cell death was determined by dual staining with annexin V-FITC (Santa Cruz Biotechnology, Santa Cruz Calif., USA) and PI, and flow cytometric analysis. Cells were treated with 10 μM selenite for 24 h then collected and re-suspended in binding buffer (10 mM HEPES/NaOH, pH 7.4, 140 mM NaCl, 2.5 mM CaCl2). 2.5 μg/ml annexin V-FITC was added and cells were incubated for 30 min at room temperature, then 0.25 μg/ml PI was added and samples were analyzed by flow cytometry (FACSort, Becton Dickenson and. Co., San Jose, Calif. USA).

J774.2 macrophages [3] = experiment: Mitochondrial membrane potential (CMTMRos, flow cytometry); assay type: cell-based, murine; conditions: 10 μM; LPS + INFγ activated (FIG. 16B)
Protocol: as §1
Evaluation of mitochondrial membrane potential (MMP) in cells—MMP was detected by flow cytometry (FACSort, Becton Dickenson and Co., San Jose, Calif. USA) using the membrane potential-sensitive fluorescent probe MitoTracker Orange (CMTMRos) (Molecular Probes, Oregon, USA). The following fluorescence setting was used: excitation at 488 nm and emission at 575 nm (FL2 channel) (24,25). Macrophage cells (1 million cells/ml) were stained with 0.1 μM CMTMRos for 30 min at 37° C. Accumulation of the dye in the mitochondria was evaluated by flow cytometer analysis as described hereinabove. Data were collected from 10,000 cells.

[4] = tested on: hapten (TNBS)-induced colitis
Protocol: Animals: Male Sprague-Dawley rats (approximately 150 g bw) received food and water ad libitum. They were kept in plastic cages with wire tops in a light-controlled room.
High-dose dietary selenium supplementation: Rats received food and (unsupplemented) water ad libitum (control group). Normal selenium (control) diet included 0.2 mg selenium/kg chow. […] The high-selenium diet provided approximately 2-3 μ/gm day of selenium per animal, which is considered an acceptable excess supplementation diet for this element (Davis et al., 1998; Shilo et al., 2003).
Induction of colitis and sample collection: Colitis was induced by administration of 0.5 ml of 2,4,6-trinitrobenzene sulphonic acid (TNBS, 100 mg/ml dissolved in 50% ethanol)through the anal canal, at a distance of 8 cm into the colon, just proximal to the splenic flexure. 24 hours after induction animals were sacrificed and the colon was removed for pathology, histocytological, biochemical or immunohistocytological analysis (Reifen et al., 2000).

[5] = tested on: myocarditic Coxsackie virus B3; conditions: 5 ppm in the water; cited from earlier work
[6] = in vivo; cited from earlier work

With [Se] [selenium] the “concentration of maximum stimulation of GPx activity” value [1] was 0.5 µM, the “character of cell death” value (J774.2 macrophages [2]) was “cell death with necrotic characteristics” and the “mitochondrial membrane potential (MMP), activated macrophages” value (J774.2 macrophages [3]) was “downregulates”. For the same compound, the “necrosis, share of the colon (gross pathology)” value ([4]; 24 h after TNBS, 3 weeks high-dose supplementation, unsupplemented rat more than 80%) was “less than 15%”, the “effects on colon tissue of healthy, uninduced rats (gross pathology)” value ([4]; rat, in vivo) was “no apparent effects” and the “inflammatory lesions and necrosis” value [5] was “no effect”. For the same compound, the “carcinogenesis in male mice” value [6] was “unaffected”.
